Square brackets hold non-standard residues; d marks the D form. Peptide text beside a SMILES is read from it. ξ: configuration not given here. Aoe(9ξ) = N[C@@H](CCCCCC(=O)C1CO1)C(=O)O; dPip = O=C(O)[C@H]1CCCCN1
Assays:
RhoB promoter [1] = experiment: Chromatin immunoprecipitation assays; type: cell-based; conditions: region containing the inverted CCAAT box
Protocol: (§1) Furthermore, mutations in this CCAAT box reduced the ability of HDAC1 to confer repression of RhoB promoter activity. In addition, chromatin immunoprecipitation assays reveal that TPX increased the level of chromatin acetylation in the TPX-responsive region of the RhoB promoter containing the inverted CCAAT box. […] The global gene expression profiles of A549 cells following inhibition of HDAC with LAQ824 were determined by DNA microarray analysis.

RhoB promoter [2] = experiment: RhoB promoter deletion/mutation constructs, induction by TPX; type: cell-based; conditions: following TPX treatment
Protocol: as §1

histone deacetylase 1 = histone deacetylase 1 (Homo sapiens, UniProt Q13547); conditions: Tauton et al. Science 272:408-411 (1996); cited from earlier work
Chain of histone deacetylase 1 (Q13547 whole entry, species assumed): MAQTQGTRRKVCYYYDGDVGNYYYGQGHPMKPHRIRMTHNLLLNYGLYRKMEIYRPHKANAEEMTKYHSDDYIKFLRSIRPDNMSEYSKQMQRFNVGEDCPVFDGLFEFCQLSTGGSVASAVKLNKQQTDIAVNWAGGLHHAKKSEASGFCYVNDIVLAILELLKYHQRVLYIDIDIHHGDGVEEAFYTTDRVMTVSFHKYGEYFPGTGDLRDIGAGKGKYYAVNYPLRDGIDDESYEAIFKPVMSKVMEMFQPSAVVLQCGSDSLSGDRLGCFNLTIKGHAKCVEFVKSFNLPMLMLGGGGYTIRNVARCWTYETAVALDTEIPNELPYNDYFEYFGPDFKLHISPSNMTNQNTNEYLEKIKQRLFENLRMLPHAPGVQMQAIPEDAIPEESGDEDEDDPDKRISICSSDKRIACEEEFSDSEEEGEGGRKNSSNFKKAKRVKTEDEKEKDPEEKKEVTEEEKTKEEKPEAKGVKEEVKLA

O=C(CCCCC[C@@H]1NC(=O)[C@H]2CCCCN2C(=O)[C@H](Cc2ccccc2)NC(=O)[C@H](Cc2ccccc2)NC1=O)C1CO1 (stereo partly drawn) [TPX, trapoxin A] (cyclo(FF[dPip][Aoe(9ξ)]))
level of chromatin acetylation in the TPX-responsive region of the RhoB promoter (RhoB promoter [1]): increased
induction of expression from RhoB promoter deletion constructs (RhoB promoter [2]): induction of expression from all of these deletions is similar
inhibition of histone deacetylase 1 (histone deacetylase 1): potently inhibit
